ChEMBL document CHEMBL6096690, “Synthesis and Biological Evaluation of Peripheral HTR2A Antagonists for Colorectal Cancer” (J Med Chem, 2025)
Activity calls are given as the source filed them. The rule behind the calls is not given here.

Assays:
HCT-116 [1] = assay: Antitumor activity against human HCT-116 cells expressing firefly luciferase xenografted in male athymic nude BALB/c mouse assessed as decrease in bioluminescent signals at 50 mg/kg, ip administered once daily by bioluminescence imaging analysis; assay type: functional, organism-based
HCT-116 [2] = assay: Induction of apoptosis in human HCT-116 cells assessed as upregulation of total P53 protein expression at 5 to 10 uM incubated for 24 hrs by Western blotting analysis; assay type: functional, cell-based; conditions: dose 5-10 µM
SW-620 [3] = assay: Antitumor activity against human SW620 cells xenografted in male athymic nude BALB/c mouse assessed as tumor growth inhibition at 50 mg/kg, ip administered once daily relative to control; assay type: functional; conditions: read-out: TGI
[4] = Drug concentration in male ICR mouse plasma at 10 mg/kg, ip measured after 1 hr; assay type: ADME, organism-based
[5] = Drug concentration in male ICR mouse brain at 10 mg/kg, ip measured after 1 hr; assay type: ADME, organism-based; conditions: read-out: Ct
SW480 [6] = assay: Antiproliferative activity against human SW480 cells assessed as inhibition of cell proliferation at 1.5 to 12.5 uM by CCK-8 assay; assay type: functional, cell-based; conditions: dose 1.5-12.5 µM, time 24-48 hrs
[7] = Microsomal stability in human liver microsomes assessed as parent compound remaining measured after 30 mins; assay type: ADME, Microsome; conditions: read-out: Stability
HCT-116 [8] = assay: Induction of apoptosis in human HCT-116 cells assessed as increase in cleaved caspase 3 expression incubated for 24 hrs by Western blotting analysis; assay type: functional, cell-based; conditions: dose 5-10 µM
RKO = assay: Antiproliferative activity against human RKO cells assessed as inhibition of cell proliferation incubated for 24 to 48 hrs by CCK-8 assay; assay type: functional, cell-based; conditions: dose 1.5-12.5 µM, time 24-48 hrs
SW-620 [9] = assay: Induction of apoptosis in human SW620 cells assessed as increase in cleaved PARP expression incubated for 24 hrs by Western blotting analysis; assay type: functional, cell-based; conditions: dose 5-10 µM
SW-620 [10] = assay: Induction of apoptosis in human SW620 cells assessed as upregulation of acetylated P53 protein expression at 5 to 10 uM incubated for 24 hrs by Western blotting analysis; assay type: functional, cell-based; conditions: dose 5-10 µM
CCD-18Co = assay: Cytotoxicity against human CCD-18Co cells assessed as inhibition of cell proliferation incubated for 24 to 48 hrs by CCK-8 assay; assay type: toxicity, cell-based; conditions: dose lower 1.5 µM, time lower 24 hrs, dose upper 12.5 µM, time upper 48 hrs
[11] = molecular target: 5-hydroxytryptamine receptor 7 (Homo sapiens) (UniProt P34969); assay: Inhibition of 5HTR7 (unknown origin) at 1 uM relative to control
Chain of 5-hydroxytryptamine receptor 7 (Homo sapiens) (P34969 whole entry): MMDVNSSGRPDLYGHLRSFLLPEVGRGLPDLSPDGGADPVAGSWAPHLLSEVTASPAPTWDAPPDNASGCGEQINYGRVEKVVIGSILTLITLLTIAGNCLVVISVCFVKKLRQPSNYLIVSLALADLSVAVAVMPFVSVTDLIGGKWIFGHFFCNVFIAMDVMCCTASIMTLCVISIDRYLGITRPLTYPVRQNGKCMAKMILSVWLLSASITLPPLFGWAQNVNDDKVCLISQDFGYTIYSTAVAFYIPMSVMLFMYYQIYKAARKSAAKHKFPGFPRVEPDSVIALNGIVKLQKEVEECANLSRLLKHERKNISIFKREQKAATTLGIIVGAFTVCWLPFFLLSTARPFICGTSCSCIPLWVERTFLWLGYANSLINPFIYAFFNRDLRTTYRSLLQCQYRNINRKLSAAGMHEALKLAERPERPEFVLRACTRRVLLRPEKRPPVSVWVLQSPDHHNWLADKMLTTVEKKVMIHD

CYP2C19 = CYP2C19 (Homo sapiens, UniProt P33261); assay: Inhibition of CYP2C19 (unknown origin) at 10 uM relative to control; assay type: ADME
Chain of CYP2C19 (P33261 whole entry): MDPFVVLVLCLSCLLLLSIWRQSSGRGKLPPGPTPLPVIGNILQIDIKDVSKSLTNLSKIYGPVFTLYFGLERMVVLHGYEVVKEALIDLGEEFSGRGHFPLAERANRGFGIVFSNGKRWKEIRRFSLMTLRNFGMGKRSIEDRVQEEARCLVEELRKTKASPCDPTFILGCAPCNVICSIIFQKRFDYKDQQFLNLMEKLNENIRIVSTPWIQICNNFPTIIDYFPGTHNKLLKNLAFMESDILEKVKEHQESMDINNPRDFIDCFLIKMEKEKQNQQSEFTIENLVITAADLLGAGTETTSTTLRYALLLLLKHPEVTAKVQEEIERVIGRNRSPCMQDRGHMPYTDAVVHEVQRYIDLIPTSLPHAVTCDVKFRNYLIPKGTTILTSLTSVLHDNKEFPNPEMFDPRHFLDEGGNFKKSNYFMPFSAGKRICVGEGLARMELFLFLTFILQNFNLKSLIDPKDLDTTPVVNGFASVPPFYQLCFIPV

SW-620 [12] = assay: Induction of apoptosis in human SW620 cells assessed as upregulation of total P53 protein expression at 5 to 10 uM incubated for 24 hrs by Western blotting analysis; assay type: functional, cell-based; conditions: dose 5-10 µM
SW-620 [13] = assay: Induction of apoptosis in human SW620 cells assessed as increase in apoptotic cells at 5 to 10 uM incubated for 24 hrs by Annexin V/propidium iodide staining based FACS assay; assay type: functional, cell-based; conditions: dose 5-10 µM
[14] = Microsomal stability in rat liver microsomes assessed as parent compound remaining measured after 30 mins; assay type: ADME, Microsome; conditions: read-out: Stability
CYP1A2 = molecular target: T1, CYP1A2 (Homo sapiens, UniProt P05177); assay: Inhibition of CYP1A2 (unknown origin) at 10 uM relative to control; assay type: ADME
T1 sequence (P05177 whole entry): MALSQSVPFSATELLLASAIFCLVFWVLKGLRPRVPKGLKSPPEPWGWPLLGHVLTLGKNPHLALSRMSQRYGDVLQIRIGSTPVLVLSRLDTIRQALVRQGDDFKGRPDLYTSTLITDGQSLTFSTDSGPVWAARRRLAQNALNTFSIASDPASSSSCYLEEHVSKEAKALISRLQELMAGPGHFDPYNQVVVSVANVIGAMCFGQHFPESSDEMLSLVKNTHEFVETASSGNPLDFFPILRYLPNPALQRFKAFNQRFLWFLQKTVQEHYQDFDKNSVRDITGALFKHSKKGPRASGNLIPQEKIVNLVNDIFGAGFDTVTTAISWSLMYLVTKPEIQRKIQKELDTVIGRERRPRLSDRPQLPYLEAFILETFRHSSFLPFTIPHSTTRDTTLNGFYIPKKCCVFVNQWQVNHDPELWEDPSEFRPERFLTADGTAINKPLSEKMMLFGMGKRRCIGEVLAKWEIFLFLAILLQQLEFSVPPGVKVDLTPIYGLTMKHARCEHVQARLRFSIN

CYP2C9 = CYP2C9 (Homo sapiens, UniProt P11712); assay: Inhibition of CYP2C9 (unknown origin) at 10 uM relative to control; assay type: ADME
Chain of CYP2C9 (P11712 whole entry): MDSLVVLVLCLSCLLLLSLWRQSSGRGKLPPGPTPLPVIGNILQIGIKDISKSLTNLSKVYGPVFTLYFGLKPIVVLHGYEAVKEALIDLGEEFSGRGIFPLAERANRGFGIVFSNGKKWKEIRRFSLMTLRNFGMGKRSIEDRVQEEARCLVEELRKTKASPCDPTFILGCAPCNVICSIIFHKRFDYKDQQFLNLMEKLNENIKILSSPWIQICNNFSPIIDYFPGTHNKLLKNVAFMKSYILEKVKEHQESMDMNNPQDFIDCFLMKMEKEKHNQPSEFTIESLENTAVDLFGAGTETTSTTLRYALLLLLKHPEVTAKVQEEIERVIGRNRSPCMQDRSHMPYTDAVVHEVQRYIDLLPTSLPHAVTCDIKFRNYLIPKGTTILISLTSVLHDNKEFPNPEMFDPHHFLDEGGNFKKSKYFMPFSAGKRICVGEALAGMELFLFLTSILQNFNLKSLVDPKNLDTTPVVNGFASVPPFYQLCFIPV

SW-620 [15] = assay: Antiproliferative activity against human SW620 cells assessed as inhibition of cell proliferation incubated for 24 to 48 hrs by CCK-8 assay; assay type: functional, cell-based; conditions: dose 1.5-12.5 µM, time 24-48 hrs
SW480 [16] = assay: Antiproliferative activity against human SW480 cells assessed as inhibition of cell proliferation incubated for 24 to 48 hrs by CCK-8 assay; assay type: functional, cell-based; conditions: dose 1.5-12.5 µM, time 24-48 hrs
HCT-116 [17] = assay: Antitumor activity against human HCT-116 cells xenografted in male athymic nude BALB/c mouse assessed as tumor growth inhibition at 1 mg/kg, ip measured after 19 days relative to control; assay type: functional; conditions: HCT-116, 456 h, time 19 day, read-out: TGI
[18] = molecular target: 5-hydroxytryptamine receptor 5A (Homo sapiens) (UniProt P47898); assay: Inhibition of 5HTR5A (unknown origin) at 1 uM relative to control
Chain of 5-hydroxytryptamine receptor 5A (Homo sapiens) (P47898 whole entry): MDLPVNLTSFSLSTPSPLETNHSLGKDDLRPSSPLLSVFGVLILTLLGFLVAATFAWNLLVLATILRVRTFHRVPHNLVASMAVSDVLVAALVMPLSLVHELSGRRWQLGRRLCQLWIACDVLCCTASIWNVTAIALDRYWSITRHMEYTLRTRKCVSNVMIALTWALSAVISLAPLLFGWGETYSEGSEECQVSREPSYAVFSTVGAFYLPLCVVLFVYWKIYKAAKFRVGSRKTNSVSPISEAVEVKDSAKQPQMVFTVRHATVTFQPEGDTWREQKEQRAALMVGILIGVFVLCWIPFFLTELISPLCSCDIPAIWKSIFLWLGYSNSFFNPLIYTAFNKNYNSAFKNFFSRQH

[19] = Microsomal stability in mouse liver microsomes assessed as parent compound remaining measured after 30 mins; assay type: ADME, Microsome; conditions: read-out: Stability
CYP2D6 = CYP2D6 (Homo sapiens, UniProt P10635); assay: Inhibition of CYP2D6 (unknown origin) at 10 uM relative to control; assay type: ADME
Chain of CYP2D6 (P10635 whole entry): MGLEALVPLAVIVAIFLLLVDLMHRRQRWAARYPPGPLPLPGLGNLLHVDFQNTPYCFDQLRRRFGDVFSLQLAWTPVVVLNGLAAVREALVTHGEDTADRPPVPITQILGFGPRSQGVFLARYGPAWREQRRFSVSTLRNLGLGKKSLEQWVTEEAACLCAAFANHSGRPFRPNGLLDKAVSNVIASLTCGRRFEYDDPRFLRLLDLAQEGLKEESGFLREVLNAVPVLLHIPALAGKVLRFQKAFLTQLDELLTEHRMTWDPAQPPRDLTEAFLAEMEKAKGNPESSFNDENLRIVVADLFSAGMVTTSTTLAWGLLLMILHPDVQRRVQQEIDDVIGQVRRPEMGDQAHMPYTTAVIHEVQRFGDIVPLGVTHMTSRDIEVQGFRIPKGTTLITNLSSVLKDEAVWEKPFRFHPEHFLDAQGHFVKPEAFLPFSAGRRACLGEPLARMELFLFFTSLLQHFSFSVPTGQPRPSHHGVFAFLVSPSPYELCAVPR

hERG (KCNH2) = hERG (KCNH2) (Homo sapiens, UniProt Q12809); assay: Inhibition of hERG at 10 uM relative to control; assay type: toxicity
Chain of hERG (KCNH2) (Q12809 whole entry): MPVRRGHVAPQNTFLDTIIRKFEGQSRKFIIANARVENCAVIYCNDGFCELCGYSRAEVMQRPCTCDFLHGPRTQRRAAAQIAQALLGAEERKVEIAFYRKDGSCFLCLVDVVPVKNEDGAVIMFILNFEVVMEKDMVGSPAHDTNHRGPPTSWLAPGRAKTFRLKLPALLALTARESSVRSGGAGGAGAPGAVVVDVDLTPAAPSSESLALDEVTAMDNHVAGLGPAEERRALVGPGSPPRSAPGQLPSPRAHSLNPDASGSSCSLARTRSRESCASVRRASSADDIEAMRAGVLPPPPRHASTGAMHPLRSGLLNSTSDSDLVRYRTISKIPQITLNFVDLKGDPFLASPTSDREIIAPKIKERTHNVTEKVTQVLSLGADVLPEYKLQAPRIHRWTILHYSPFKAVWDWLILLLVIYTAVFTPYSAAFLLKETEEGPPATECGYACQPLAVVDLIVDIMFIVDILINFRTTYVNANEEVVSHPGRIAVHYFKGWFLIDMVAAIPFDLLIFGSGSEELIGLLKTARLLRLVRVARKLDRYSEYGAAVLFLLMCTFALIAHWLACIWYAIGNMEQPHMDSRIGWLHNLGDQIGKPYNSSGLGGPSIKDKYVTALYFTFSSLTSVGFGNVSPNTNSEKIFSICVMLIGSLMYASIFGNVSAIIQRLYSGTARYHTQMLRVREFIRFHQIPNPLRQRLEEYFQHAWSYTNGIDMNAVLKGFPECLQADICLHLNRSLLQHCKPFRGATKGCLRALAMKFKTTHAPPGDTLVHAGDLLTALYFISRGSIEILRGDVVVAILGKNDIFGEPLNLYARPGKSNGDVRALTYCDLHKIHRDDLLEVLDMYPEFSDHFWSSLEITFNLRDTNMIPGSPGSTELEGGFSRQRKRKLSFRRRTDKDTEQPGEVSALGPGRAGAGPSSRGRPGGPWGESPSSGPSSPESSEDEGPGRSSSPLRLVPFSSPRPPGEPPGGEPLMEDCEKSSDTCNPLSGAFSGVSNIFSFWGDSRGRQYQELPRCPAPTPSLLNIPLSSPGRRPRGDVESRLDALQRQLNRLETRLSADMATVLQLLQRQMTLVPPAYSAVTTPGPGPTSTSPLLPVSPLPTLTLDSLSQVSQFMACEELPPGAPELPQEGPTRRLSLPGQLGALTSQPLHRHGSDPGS

SW-620 [20] = assay: Antitumor activity against human SW620 cells xenografted in male athymic nude BALB/c mouse assessed as tumor growth inhibition administered intraperitoneally once daily relative to control; assay type: functional; conditions: dose 10-50 mg/kg, route ip
HCT-116 [21] = assay: Induction of apoptosis in human HCT-116 cells assessed as upregulation of acetylated P53 protein expression at 5 to 10 uM incubated for 24 hrs by Western blotting analysis; assay type: functional, cell-based; conditions: dose 5-10 µM
[22] = molecular target: 5-hydroxytryptamine receptor 2B (Homo sapiens, UniProt P41595); assay: Inhibition of 5HTR2B (unknown origin) at 1 uM relative to control
Chain of 5-hydroxytryptamine receptor 2B (P41595 whole entry): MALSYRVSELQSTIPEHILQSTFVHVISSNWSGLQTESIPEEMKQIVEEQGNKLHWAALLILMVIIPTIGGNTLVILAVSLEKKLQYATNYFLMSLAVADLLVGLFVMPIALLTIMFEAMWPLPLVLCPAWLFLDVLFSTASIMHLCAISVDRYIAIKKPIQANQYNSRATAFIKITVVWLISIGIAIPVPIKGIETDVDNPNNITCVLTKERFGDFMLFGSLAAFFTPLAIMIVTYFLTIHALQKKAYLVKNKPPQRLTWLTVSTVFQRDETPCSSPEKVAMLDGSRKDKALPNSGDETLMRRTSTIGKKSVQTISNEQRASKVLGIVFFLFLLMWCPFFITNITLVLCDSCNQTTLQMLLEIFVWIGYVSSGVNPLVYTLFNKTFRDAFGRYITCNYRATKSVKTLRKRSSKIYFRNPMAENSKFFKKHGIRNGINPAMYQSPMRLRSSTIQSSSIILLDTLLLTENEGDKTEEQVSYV

- concentration at 1 h [4]: 463 ng/mL
- concentration at 1 h [5]: < 0.5 ng/g
- remaining at 0.5 h [7]: > 99%
- inhibition [11]: 102%
- inhibition at 10 µM (CYP2C19): 21%
- remaining at 0.5 h [14]: 95.3%
- inhibition at 10 µM (CYP1A2): 4.6%
- inhibition at 10 µM (CYP2C9): 5%
- inhibition [18]: 10%
- remaining at 0.5 h [19]: > 99%
- inhibition at 10 µM (CYP2D6): 55.1%
- inhibition [22]: 84.8%
Compound: Cl.Cl.O=C(NCc1ccc(OCC(O)CN2CCN(c3noc4cc(F)ccc34)CC2)cc1)N(Cc1ccc(F)cc1)C1CCNCC1 (centres undefined)
- Activity (HCT-116 [1]): Active
- Activity (HCT-116 [2]): Active
- inhibition in vivo at 50 mg/kg (SW-620 [3]): 46.9%
- Activity (SW480 [6]): Time-dependent-effect
- Activity (HCT-116 [8]): Dose-dependent-effect
- Activity (RKO): Dose-dependent-effect
- Activity (SW-620 [9]): Dose-dependent-effect
- Activity (SW-620 [10]): Active
- Activity (CCD-18Co): Dose-dependent-effect
- Activity (SW-620 [12]): Active
- Activity (SW-620 [13]): Active
- Activity (SW-620 [15]): Dose-dependent-effect
- Activity (SW480 [16]): Dose-dependent-effect
- inhibition in vivo at 1 mg/kg (HCT-116 [17]): 38.8%
- inhibition at 10 µM (hERG (KCNH2)): 52%
- Activity (SW-620 [20]): Dose-dependent-effect
- Activity (HCT-116 [21]): Active
